Data published in patent publication US20220401514A1, “ANTIMICROBIAL, BACTERIOPHAGE-DERIVED POLYPEPTIDES AND THEIR USE AGAINST GRAM-NEGATIVE AND ACID-FAST BACTERIA” (CONTRAFECT CORPORATION, priority 2019, published 2022).
Where two headings read alike, the source gives them in different places.

Key:
[1] = test system: P. aeruginosa strain CFS-1292; test: MIC in presence and absence of Survanta pulmonary surfactant; assay type: cell-based, Pseudomonas aeruginosa
[2] = test system: P. aeruginosa strain CFS-1292; test: MIC at pH 6, pH 7 and pH 8; assay type: cell-based, Pseudomonas aeruginosa
Procedure: The Chp peptides were further evaluated at varying pH levels. The MIC values were determined at pH 6, pH 7, and pH 8 for 18 different Chp peptides against P. aeruginosa strain CFS-1292. […]

[3] = test system: P. aeruginosa strain CFS-1292; test: MIC in presence of divalent cations (calcium chloride, magnesium sulfate); assay type: cell-based, Pseudomonas aeruginosa
Procedure: Next, Chp peptides were evaluated in the presence of different divalent cations. […]; (2) in the presence of 2 mM calcium chloride alone; (3) in the presence of 1 mM magnesium sulfate alone; and (4) in the presence of both 2 mM calcium chloride and 1 mM magnesium sulfate. […]

[4] = test system: Pseudomonas aeruginosa, Escherichia coli, Enterobacter cloacae, Klebsiella pneumoniae, and Acinetobacter baumannii; test: MIC against a range of Gram-negative organisms (statements covering several species); assay type: cell-based; conditions: Tables 40-44 isolates
Procedure: (§1) Determination of Minimal Inhibitory Concentrations (MIC).
(§2) Additional MIC testing was performed for several peptides against the ESKAPE pathogens Escherichia coli, Enterobacter cloacae, Klebsiella pneumoniae, and Acinetobacter baumannii, in CAA supplemented with human serum (Table D).

Escherichia coli = test: microbe, parasite or virus in culture; assay type: cell-based
Summary of the method: (§3)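 Human serum was added to CAA broth for these MIC determinations with peptides.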

Enterobacter cloacae = test: microbe, parasite or virus in culture; assay type: cell-based
Summary of the method: as §3

Pseudomonas aeruginosa = test: microbe, parasite or virus in culture; assay type: cell-based; conditions: P. aeruginosa isolates (n per peptide in table)
[5] = test system: M. kansasii Hauduroy ATCC 12478; test: 45 hr MIC against M. kansasii (NTM), Mueller Hinton broth; assay type: cell-based, Mycobacterium kansasii
M. scrofulaceum = test: 45 hr MIC against M. scrofulaceum (NTM); assay type: cell-based, Mycobacterium scrofulaceum; conditions: M. scrofulaceum Prissick and Masson ATCC 19981
[6] = test system: Mycobacterium tuberculosis strains
Procedure: MIC values for various Chp peptides were determined using the CLSI method for broth microdilution in 96-well microtiter format.
Next, MIC values for various Chp peptides were determined using the CLSI method above for broth microdilution in 96-well microtiter format for two different Mycobacterium tuberculosis strains. The MIC was determined as explained above for the NTM strains.

[7] = Stability assessment in 100% CAA; assay type: in vitro ADME; set-up: unit not given beside the values
Procedure: Stability was assessed after incubation in 100% human serum at 37° C. after 10 minutes, 1 hour, and 2 hours.
Stability assessment was further conducted in 100% CAA and rabbit serum using the same methodology discussed above.

M. fortuitum = test: 45 hr MIC against M. fortuitum (NTM); assay type: cell-based, Mycobacterium fortuitum; conditions: M. fortuitum subsp. Fortuitum da Costa Cruz. ATCC 6841
Acinetobacter baumannii = test: microbe, parasite or virus in culture; assay type: cell-based
Klebsiella pneumoniae = assay type: cell-based
Procedure: as §1, §2

S. maltophilia = test: MIC against S. maltophilia isolates; assay type: cell-based, Stenotrophomonas maltophilia; conditions: S. maltophilia isolates (n per peptide in table)
Summary of the method: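 Chp peptides were tested on a set of S. maltophilia isolates (n = isolates per species), with minimal inhibitory concentrations given in μg/mL.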

M. intracellulare = test: 45 hr MIC against M. intracellulare (NTM); assay type: cell-based, Mycobacterium intracellulare; conditions: M. intracellulare (Cuttino and McCabe) Runyon ATCC 13950
[8] = test system: P. aeruginosa strain CFS-1292; test: MIC in presence and absence of NaCl (140 mM); assay type: cell-based, Pseudomonas aeruginosa
Procedure: Certain Chp peptides were evaluated over a range of physiological NaCl levels and pH values, and were further evaluated for activity in the presence of various divalent cations.

M. smegmatis = test: 45 hr MIC against M. smegmatis (NTM), Mueller Hinton broth; assay type: cell-based, Mycobacterium smegmatis
[9] = test system: carbapenem-resistant bacterial strains; test: organism not typed; assay type: cell-based
Description: as §1

[10] = test system: P. aeruginosa strain CFS-1292; test: MIC in presence of mouse, rat, rabbit and human serum ([…] each); assay type: cell-based, Pseudomonas aeruginosa; conditions: P. aeruginosa CFS-1292
Procedure: The activity of several Chp peptides against P. aeruginosa strain CFS-1292 in animal serum was evaluated. […] Rat, mouse, and rabbit serum were all obtained from pooled gender samples.

M. avium = test: 45 hr MIC against M. avium (NTM); assay type: cell-based, Mycobacterium avium; conditions: M. avium Chester ATCC 700898
[11] = test system: carbapenem-resistant P. aeruginosa clinical isolate CFS-1292; test: MIC by modified CLSI broth microdilution against P. aeruginosa CFS-1292 (CAA, CAA + human serum); assay type: cell-based, Pseudomonas aeruginosa
[12] = E. coli isolates (n per peptide in table)
[13] = E. cloacae isolates (n per peptide in table)
[14] = A. baumannii isolates (n per peptide in table)
[15] = K. pneumoniae isolates (n per peptide in table)

MARSRRRMSKRSSRRSFRKYAKTHKKNFKARSMRGGIRL [Ecp3]
MIC ([1]; CAA media + 0.19 mg/mL Survanta): 0.5 µg/mL | MIC ([1]; CAA media + […] Survanta): 0.5 µg/mL | MIC ([1]; CAA media alone): 0.5 µg/mL | MIC ([2]; CAA media (pH 7)): 1 µg/mL | MIC ([2]; pH 6): 2 µg/mL | MIC ([2]; pH 7): 2 µg/mL | MIC ([2]; pH 8): 2 µg/mL | MIC ([3]; CAA media + 1 mM MgSO4): 2 µg/mL | MIC ([3]; CAA media + 2 mM CaCl2): 2 µg/mL | MIC ([3]; CAA media + + 1 mM MgSO4): 2 µg/mL | MIC ([3]; CAA media alone): 1 µg/mL | activity (good = MIC100 of ≤4) against all of P. aeruginosa, K. pneumoniae, A. baumannii, E. cloacae, and E. coli [4]: good activity | MIC50 (Escherichia coli; [12]): 1 µg/mL | MIC100 (Escherichia coli; [12]): 2 µg/mL | MIC Range (Escherichia coli; [12]): 0.125 to 8 µg/mL | MIC (Escherichia coli; Escherichia coli ATCC 25922, CAA supplemented with human serum): 1 µg/mL | MIC50 (Enterobacter cloacae; [13]): 0.5 µg/mL | MIC100 (Enterobacter cloacae; [13]): 4 µg/mL | MIC Range (Enterobacter cloacae; [13]): 0.25 to 4 µg/mL | MIC (Enterobacter cloacae; Enterobacter cloacae ATCC 13047, CAA supplemented with human serum): 4 µg/mL | MIC50 (Pseudomonas aeruginosa): 2 µg/mL | MIC100 (Pseudomonas aeruginosa): 4 µg/mL | MIC Range (Pseudomonas aeruginosa): 0.5 to 4 µg/mL | 45 hr MIC [5]: 2 µg/mL | 45 hr MIC (M. scrofulaceum): 2 µg/mL | MIC ([6]; Mycobacterium tuberculosis (Zopf) Lehmann and Neumann ATCC 25177): 16 µg/mL | MIC ([6]; Mycobacterium tuberculosis (Zopf) Lehmann and Neumann ATCC 35817): 8 µg/mL | MIC (100% CAA) [7]: 0.5 | 45 hr MIC (M. fortuitum): 2 µg/mL | MIC50 (Acinetobacter baumannii; [14]): 0.25 µg/mL | MIC100 (Acinetobacter baumannii; [14]): 0.5 µg/mL | MIC Range (Acinetobacter baumannii; [14]): 0.125 to 0.5 µg/mL | MIC (Acinetobacter baumannii; Acinetobacter baumannii ATCC BAA 747, CAA supplemented with human serum): 2 µg/mL | MIC50 (Klebsiella pneumoniae; [15]): 1 µg/mL | MIC100 (Klebsiella pneumoniae; [15]): 2 µg/mL | MIC Range (Klebsiella pneumoniae; [15]): 0.5 to 4 µg/mL | MIC (Klebsiella pneumoniae; Klebsiella pneumoniae HM-44, CAA supplemented with human serum): 0.5 µg/mL | MIC50 (S. maltophilia): 4 µg/mL | MIC100 (S. maltophilia): >8 µg/mL | 45 hr MIC (M. intracellulare): 8 µg/mL | Fold change in MIC ([8]; CAA + 140 mM NaCl versus CAA without added NaCl): 4 | MIC, CAA + 140 mM NaCl ([8]; CAA + 140 mM NaCl, P. aeruginosa CFS-1292): 2 µg/mL | MIC, CAA (no added NaCl) ([8]; CAA, no added NaCl, P. aeruginosa CFS-1292): 0.5 µg/mL | 45 hr MIC (M. smegmatis; M. smegmatis MC^2 155, Run #1): 4 µg/mL | 45 hr MIC (M. smegmatis; M. smegmatis MC^2 155, Run #2): 8 µg/mL | MIC ([9]; carbapenem-resistant isolate PA19): 0.5 µg/mL | MIC ([9]; carbapenem-resistant isolate PA20): 4 µg/mL | MIC ([9]; carbapenem-resistant isolate PA21): 4 µg/mL | MIC ([9]; carbapenem-resistant isolate PA22): 4 µg/mL | MIC ([9]; carbapenem-resistant isolate PA23): 2 µg/mL | MIC ([9]; carbapenem-resistant isolate PA24): 2 µg/mL | MIC ([9]; carbapenem-resistant isolate WLC-452): 1 µg/mL | MIC BALB/C Mouse Serum ([10]; BALB/C mouse serum […]): >32 µg/mL | MIC CAA ([10]; CAA): 0.5 µg/mL | MIC New Zealand White Rabbit Serum ([10]; New Zealand White rabbit serum […]): 8 µg/mL | MIC Sprague Dawley Rat Serum ([10]; Sprague Dawley rat serum […]): 8 µg/mL | MIC Human Serum ([10]; human serum […]): 0.5 µg/mL | 45 hr MIC (M. avium): 1 µg/mL | MIC (μg/mL) against CFS-1292 in 100% CAA (1st run/2nd run) ([11]; 100% CAA, 1st run or single value): 0.5 µg/mL | MIC (μg/mL) against CFS-1292 in CAA + […] human serum ([11]; CAA + […] human serum): 0.5 µg/mL
